Assay results reported in patent US20100120679A1, “Targeting NBS1-ATM Interaction To Sensitize Cancer Cells To Radiotherapy And Chemotherapy” (SOUTHERN RESEARCH INSTITUTE, priority 2006, published 2010).
Ends that are not written are not given here. Peptide text beside a SMILES is read from it. * marks the point of attachment. Biotin = O=C1N[C@H]2[C@H](CS[C@H]2CCCCC(=O)*)N1

Columns and labels:
Hela cells [1] = settings: cited from earlier work
HeLa cells [2] = assay: Peptide internalization by immunofluorescence microscopy (fluorescein-conjugated streptavidin); type: cell-based, human; settings: 10 μM for 1 h
Procedure: First, the internalization of the peptides was evaluated. Cells treated with the peptide were probed with a fluorescein-conjugated streptavidin antibody to determine the presence of the biotinylated peptides.

HeLa cells [3] = assay: Length of time the peptides remain in cells (degradation, immunofluorescence)
Procedure: HeLa cells were treated with 10 μM R9, wtNIP, or scNIP for one hour and harvested at indicated time points before they were analyzed by immunofluorescence microscopy staining with an […].
Immunofluorescence microscopy: Exponentially growing cultures of cells were plated on sterile, […] coverslips, and incubated for 24 hours at 37° C. in 5% CO2 humidified air before they are treated with the NIP peptides at room temperature. Coverslips were washed with PBS and fixed with 4% paraformaldehyde-0.25% Triton X-100 for 15 minutes at room temperature, blocked for 30 minutes at room temperature, and incubated with FITC-conjugated streptavidin or anti-γH2AX and phospho-NBS1 antibodies (Rockland Immunochemicals, Gilbertsville, Pa.) for 1 hour at room temperature. Coverslips were then mounted with Vectashield Elite (Vector Labs, Burlingame, Calif.) and observed with a Leica fluorescence microscope. Images were captured at 40× magnification using a Q Imaging Retiga Exi digital camera and analyzed with Image Pro-Plus 5.1 software.
Because the peptides would be used in radiation studies, the length of time the peptides remain in cells was determined to ensure that the peptides would be present throughout the DNA repair process after IR.

NBS1-ATM interaction = molecular target: T1, NBS1-ATM interaction (Homo sapiens, UniProt Q13315); assay: Co-immunoprecipitation of ATM with NBS1 in peptide-treated cells; type: cell-based; settings: HeLa cells, four hours after peptide treatment, unirradiated
T1 construct: endogenous in cells; host or cells: HeLa
Procedure: HeLa cells treated with the NIP peptides were irradiated (0 or 6Gy). Immunoprecipitation was performed with a rabbit NBS1 antibody, and Western blotting was performed with monoclonal antibodies against ATM, NBS1 or MRE11.
Immunoprecipitation and Western blotting: For co-immunoprecipitation of ATM, NBS1 and MRE11, cells were lysed 1 hour in ice-cold lysis buffer, which consisted of 10 mM Tris-HCl (pH 7.5), 100 mM NaCl, 5 mM EDTA, 0.5% NP-40, 5 mM Na3VO4, 1 mM NaF, and 1 mM PMSF. After centrifugation, supernatants were incubated with indicated antibodies. After extensive washing with the lysis buffer, immunoprecipitates were analyzed by immunoblot using specific antibodies. For western blotting analysis, samples (cell lysates or immunoprecipitates) were separated on 4-12% SDS-poly-acrylamide gels, transferred to nitrocellulose membranes, and probed with various antibodies.
wtNIP Abrogated the NBS1-ATM Interaction: To investigate whether R9-conjugated NIP peptides could inhibit NBS1-ATM interactions, coimmunoprecipitation experiments were performed in cells treated with the NIP peptides. Four hours after peptide treatment, HeLa cells were harvested and subjected to immunoprecipitation using an anti-NBS1 antibody. The immunoprecipitates were then blotted with anti-ATM, NBS1, and MRE11 antibodies.

[4] = tested on: γ-H2AX foci in HeLa cells; assay: IR-induced γ-H2AX focus formation, HeLa; type: cell-based, human; settings: 10 μM peptide, 30 minutes after 6Gy IR
Description: (§1) Error bars represent +/−1 SD, graphed are the mean of three independent experiments.
(§2) wtNIP Inhibits IR-Induced γ-H2AX and NBS1 pSer343 Focus Formation: One of the earliest responses to IR-induced DNA damage is the formation of γ-H2AX foci, which requires functional ATM (Burma et al., 2001; Furuta et al., 2003). […] Immunofluorescence microscopy was used to detect the presence of γ-H2AX foci in mock-irradiated or irradiated cells in the presence of R9, wtNIP or scNIP. […] Therefore, IR-induced γ-H2AX focus formation can be inhibited by wt-NIP.

[5] = tested on: γ-H2AX foci in DU-145 cells; assay: IR-induced γ-H2AX focus formation, DU-145; type: cell-based, human; settings: 10 μM peptide, 6Gy
Description: as §1, §2

[6] = tested on: NBS1 phosphorylation on serine 343 in HeLa cells; assay: IR-induced NBS1 pSer343 focus formation, HeLa; type: cell-based, human
Description: as §1
To further support the idea that wtNIP can inhibit ATM-mediated DNA damage pathways, IR-induced NBS1 focus formation, an event considered to be an ATM-dependent process at the sites of DSBs (Lim et al., 2000) was investigated. NBS1 foci are a result of ATM-mediated NBS1 phosphorylation on serine 343. […] The average number of foci in mock-irradiated HeLa cells was 6, 8, and 6 for R9, wtNIP, and scNIP, respectively.

HeLa cells [7] = assay: Colony formation assay (radiosensitivity), HeLa
Procedure: Shown in A (HeLa), C (MO59J) and D (GM9607) are the susvival curves after indicated doses of radiation. Error bars represent +/−1 SEM, graphed are the mean of three independent experiments.
Colony formation assays: To determine the radiosensitivity, the colony forming assay was incorporated. Cells were harvested with 0.125% trypsin-0.05% EDTA, pelleted and re-suspended in 1 ml fresh media with a 22 g needle to disperse clumps prior to hemocytometer counting in trypan blue. Cells were then plated at limiting dilutions in […] and allowed to adhere overnight. Cultures were treated with PBS, R9, wtNIP, or scNIP for 1 hour, and irradiated (0-6Gy). Fresh peptides were added every four hours until 24 hours after IR, when the medium was replaced with peptide-free medium. Cultures were incubated for 10-12 days, harvested and stained with 0.5% crystal violet in methanol. Colony number was determined with a dissecting microscope. A population of >50 cells was counted as one colony, and the number of colonies was expressed as a percentage of the value for untreated mock irradiated control cells. The surviving curves were plotted by linear regression analyses and the D0 value represents the radiation dose that leads to 37% of survival. To determine the radiosensitizing potential of the peptides in comparison to other small molecule inhibitors, the sensitizing enhancement ratio (SER) was calculated based on the dose of radiation required to reduce survival to 37% in the presence of scNIP or wtNIP. The following formula was used: […]
Statistics: To establish statistical significance, Student's t-test was incorporated. The data were first fit to each experimental group over a dose range of 0-6Gy. Significant differences were established at p<0.05.
FIG. 6A depicts the survival curves for HeLa cells treated with R9, wtNIP, or scNIP over a dose range of 0 to 6 Gy.

ATM = ATM (human, UniProt Q13315 2-3056); assay: cell-based or functional assay
Sequence of ATM (Q13315 other isoform, or with tags, fused parts or gaps limits assumed): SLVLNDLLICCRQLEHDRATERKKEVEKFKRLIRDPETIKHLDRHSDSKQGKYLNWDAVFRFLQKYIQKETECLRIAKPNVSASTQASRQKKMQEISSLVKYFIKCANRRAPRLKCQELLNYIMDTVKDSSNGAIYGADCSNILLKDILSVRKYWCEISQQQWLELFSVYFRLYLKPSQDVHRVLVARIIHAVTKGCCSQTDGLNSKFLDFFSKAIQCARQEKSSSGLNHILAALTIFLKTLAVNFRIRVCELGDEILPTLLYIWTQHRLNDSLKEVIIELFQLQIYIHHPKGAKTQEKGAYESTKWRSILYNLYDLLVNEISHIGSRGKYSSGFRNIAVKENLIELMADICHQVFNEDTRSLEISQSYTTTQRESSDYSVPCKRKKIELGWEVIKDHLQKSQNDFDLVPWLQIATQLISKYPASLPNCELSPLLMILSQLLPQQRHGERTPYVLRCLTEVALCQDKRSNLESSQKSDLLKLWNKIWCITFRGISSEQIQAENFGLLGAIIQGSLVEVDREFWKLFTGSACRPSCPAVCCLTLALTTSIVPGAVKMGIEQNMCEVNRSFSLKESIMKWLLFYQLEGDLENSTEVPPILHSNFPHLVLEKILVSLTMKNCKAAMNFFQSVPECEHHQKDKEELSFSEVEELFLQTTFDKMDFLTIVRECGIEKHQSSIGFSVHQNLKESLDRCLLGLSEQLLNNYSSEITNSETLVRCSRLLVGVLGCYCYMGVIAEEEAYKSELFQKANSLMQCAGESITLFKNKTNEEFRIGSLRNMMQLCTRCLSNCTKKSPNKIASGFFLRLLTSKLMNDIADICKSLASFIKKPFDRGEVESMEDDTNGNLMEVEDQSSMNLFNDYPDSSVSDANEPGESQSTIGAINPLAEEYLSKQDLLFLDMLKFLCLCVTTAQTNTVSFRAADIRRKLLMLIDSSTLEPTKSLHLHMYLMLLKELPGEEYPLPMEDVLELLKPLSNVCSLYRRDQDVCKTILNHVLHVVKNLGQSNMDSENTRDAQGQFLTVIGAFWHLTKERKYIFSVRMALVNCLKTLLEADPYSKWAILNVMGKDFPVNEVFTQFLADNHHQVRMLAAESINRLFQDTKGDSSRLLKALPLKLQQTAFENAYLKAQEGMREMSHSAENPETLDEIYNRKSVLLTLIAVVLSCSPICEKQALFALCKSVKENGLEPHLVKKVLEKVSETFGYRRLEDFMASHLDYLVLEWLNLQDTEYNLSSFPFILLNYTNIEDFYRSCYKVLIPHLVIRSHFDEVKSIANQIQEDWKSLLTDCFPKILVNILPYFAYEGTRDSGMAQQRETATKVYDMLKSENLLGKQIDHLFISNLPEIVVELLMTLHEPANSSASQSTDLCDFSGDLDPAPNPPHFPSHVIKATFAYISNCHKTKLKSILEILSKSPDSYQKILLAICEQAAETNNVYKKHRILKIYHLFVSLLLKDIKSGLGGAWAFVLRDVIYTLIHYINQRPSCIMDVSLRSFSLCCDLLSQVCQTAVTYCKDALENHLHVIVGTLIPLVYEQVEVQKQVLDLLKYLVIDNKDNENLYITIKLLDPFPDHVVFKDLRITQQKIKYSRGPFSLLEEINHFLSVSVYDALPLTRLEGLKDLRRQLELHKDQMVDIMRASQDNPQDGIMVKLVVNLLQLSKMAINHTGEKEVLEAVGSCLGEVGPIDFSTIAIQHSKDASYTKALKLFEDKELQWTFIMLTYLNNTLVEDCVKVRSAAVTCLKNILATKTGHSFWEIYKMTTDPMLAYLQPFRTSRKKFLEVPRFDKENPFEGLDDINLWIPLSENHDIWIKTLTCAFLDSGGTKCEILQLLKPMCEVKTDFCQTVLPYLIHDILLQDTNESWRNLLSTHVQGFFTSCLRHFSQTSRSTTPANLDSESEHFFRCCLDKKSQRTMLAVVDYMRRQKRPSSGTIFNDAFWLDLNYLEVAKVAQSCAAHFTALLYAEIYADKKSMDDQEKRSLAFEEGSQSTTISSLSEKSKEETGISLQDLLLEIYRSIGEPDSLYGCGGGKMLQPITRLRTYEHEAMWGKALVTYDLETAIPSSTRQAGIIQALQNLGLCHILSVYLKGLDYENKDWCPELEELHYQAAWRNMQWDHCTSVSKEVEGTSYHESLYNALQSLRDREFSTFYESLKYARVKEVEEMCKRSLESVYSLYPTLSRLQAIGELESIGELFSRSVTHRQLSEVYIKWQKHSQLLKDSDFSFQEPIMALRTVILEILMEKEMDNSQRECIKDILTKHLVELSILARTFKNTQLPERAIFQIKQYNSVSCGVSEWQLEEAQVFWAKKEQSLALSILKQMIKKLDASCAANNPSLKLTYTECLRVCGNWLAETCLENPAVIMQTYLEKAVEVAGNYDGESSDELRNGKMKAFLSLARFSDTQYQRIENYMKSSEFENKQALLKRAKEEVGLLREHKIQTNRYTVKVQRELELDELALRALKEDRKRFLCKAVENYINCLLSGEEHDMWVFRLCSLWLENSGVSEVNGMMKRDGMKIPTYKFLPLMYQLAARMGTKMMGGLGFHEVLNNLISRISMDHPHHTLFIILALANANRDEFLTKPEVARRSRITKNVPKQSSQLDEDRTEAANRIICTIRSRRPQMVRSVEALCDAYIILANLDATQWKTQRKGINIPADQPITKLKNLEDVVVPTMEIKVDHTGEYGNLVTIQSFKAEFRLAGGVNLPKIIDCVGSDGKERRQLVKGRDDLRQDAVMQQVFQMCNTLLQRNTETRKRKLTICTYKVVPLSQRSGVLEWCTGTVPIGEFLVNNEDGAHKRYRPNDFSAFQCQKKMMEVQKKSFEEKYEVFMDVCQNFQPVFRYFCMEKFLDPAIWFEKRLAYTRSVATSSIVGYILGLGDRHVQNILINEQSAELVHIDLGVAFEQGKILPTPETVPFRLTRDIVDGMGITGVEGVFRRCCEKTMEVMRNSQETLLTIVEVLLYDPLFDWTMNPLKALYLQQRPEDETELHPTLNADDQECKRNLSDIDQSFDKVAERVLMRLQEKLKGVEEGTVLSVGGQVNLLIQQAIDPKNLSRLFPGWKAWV

Molecule: O=c1cc(-c2cccc3c2Sc2ccccc2S3)oc(N2CCOCC2)c1 [KU55933]
- radiosensitivity (Hela cells [1]; Hela cells): significant increase in radiosensitivity
- increase in sensitivity to etoposide (Hela cells [1]): ≤ 35.5 fold

Molecule: CC(C)C[C@H](NC(=O)[C@H](CCC(=O)O)NC(=O)[C@H](CCC(=O)O)NC(=O)[C@H](CC(C)C)NC(=O)[C@H](CC(=O)O)NC(=O)[C@H](C)NC(=O)[C@H](CC(=O)O)NC(=O)[C@H](CO)NC(=O)[C@H](CCCNC(=N)N)NC(=O)[C@H](CCCNC(=N)N)NC(=O)[C@H](CCCNC(=N)N)NC(=O)[C@H](CCCNC(=N)N)NC(=O)[C@H](CCCNC(=N)N)NC(=O)[C@H](CCCNC(=N)N)NC(=O)[C@H](CCCNC(=N)N)NC(=O)[C@H](CCCNC(=N)N)NC(=O)[C@H](CCCNC(=N)N)NC(=O)CCCC[C@@H]1SC[C@@H]2NC(=O)N[C@@H]21)C(=O)N[C@@H](CCCCN)C(=O)O [scNIP] (Biotin-RRRRRRRRRSDADLEELK-OH)
- cellular uptake of peptide (HeLa cells [2]): significant cellular uptake of peptide
- localization of internalized peptide (HeLa cells [2]): cytoplasmic and nuclear compartments
- fluorescent intensity levels of peptide in cells (HeLa cells [3]; 8 hours): much weaker
- peptide staining in cells (HeLa cells [3]; 12 hours): much weaker cytoplasmic staining with no observed nuclear staining
- peptide staining in cells (HeLa cells [3]; 24 hours): no detectable presence of the peptides
- presence of peptides in cells (HeLa cells [3]; within 2 hours of treatment): strong distribution
- fluorescent intensity levels of peptide in cells (HeLa cells [3]; within 4 hours): began to decrease
- ATM-NBS1 association (anti-NBS1 immunoprecipitation, anti-ATM blot) (NBS1-ATM interaction): did not affect the NBS1-ATM interaction
- average number of γ-H2AX foci/nucleus [4]: 41 foci/nucleus
- IR-induced γ-H2AX focus formation [5]: did not affect IR-induced focus formation
- NBS1 pSer343 foci per nucleus ([6]; HeLa cells after treatment with 6-Gy IR): 31 foci per nucleus
- average number of NBS1 pSer343 foci ([6]; mock-irradiated HeLa cells): 6
- D0 (mean lethal dose required for 37% survival) (HeLa cells [7]): 3.0
- effect of peptide on clonogenic survival (HeLa cells [7]; 10 μM peptide): no significant difference between treatment groups
- effect on radiosensitivity / IR-induced survival (HeLa cells [7]; dose range 0 to 6 Gy): Neither R9 nor scNIP affects radiosensitivity

Molecule: Biotin-RRRRRRRRRKEESLADDLF [wild-type NBS1 inhibitory peptide (wtNIP)]
- SER (sensitizing enhancement ratio), DU-145 (ATM): 1.46
- SER (sensitizing enhancement ratio), HeLa (ATM): 1.58
- SER (sensitizing enhancement ratio), M059J cells (defective DNA-PKcs) (ATM): 1.83
- sensitizer enhancement ratio at 2Gy, HeLa (ATM): 1.66
- sensitizer enhancement ratio at 4Gy, HeLa (ATM): 2.61
- sensitizer enhancement ratio at 6Gy, HeLa (ATM): 3.12
